From patent US9145411B2, “Substituted amino-pyrimidine derivatives” (Asana Biosciences, LLC, priority 2012, dated 2015)
pIC50: −log10 of the molar value.

Assays:
pAKT (S473) = assay: In vivo PK/PD study, U87MG tumor xenograft, pAKT (S473); conditions: U87MG tumor-bearing xenograft mice, 50 mg/kg po
Experimental: (§1) PC3 cells are cultured at 37° C. in a 5% CO2 incubator using Hams F12 K medium. Ten million (10^7) cells are injected subcutaneously to the right flank region of athymic male mice (Harlan, age: 6-7 weeks, weight: about 20 g). Tumor bearing mice are randomized when the tumor volume reaches about 250 mm^3 and three mice are used per each time point. Test compounds of formula (I) are typically formulated in 40% HPCD in 1×PBS, pH 7.4 or in 10% Ethanol/40% Solutol/50% 50 mM aq. methanesulfonic acid and dosed orally at 50 mg/kg single dose (dose volume—10 mL/kg). Plasma and tumor samples are collected at 0 (vehicle control animals), 1, 4 and 24 hours post dosing. Blood is drawn (retro orbital) to a tube containing 0.2% EDTA for plasma collection. […] Tumor and plasma drug concentrations are measured for PK analysis using LC-MS.
(§2) Snap frozen tumor samples are pulverized in a mortar (Belart) containing liquid nitrogen and tumor powder is stored at −80° C. until analysis. […] The detection for pAKT is based on chemiluminescence and pS6RP is based on absorbance. […]
(§3) In vivo pharmacokinetic/pharmacodynamic (PK/PD) studies were carried out in a similar manner using U87MG tumor cells (glioma cancer cell line with a PTEN null mutation) and the corresponding tumor-bearing xenograft mice, and compounds of the invention were determined to be active in this assay. […]

PI3 kinase isoform γ = PI3 kinase isoform γ (Homo sapiens, UniProt P48736); assay: PI3 Kinase TR-FRET assay, isoform γ; assay type: biochemical; conditions: read-out: inhibition of PI3 kinase isoform γ, IC50
Experimental: (§4) The ability of compounds of the invention to inhibit PI3K activity was determined in a homogeneous TR-FRET assay using a PI3K assay kit (Millipore, USA; cat #33-016) according to manufacturer's instructions. PI3-Kinases (isoforms α, β, γ and δ) catalyze the phosphorylation of phosphatidylinositol, PIP2 to PIP3 in the presence of ATP and Mg^2+. The PIP3 product is detected by displacement of biotin-PIP3 from an energy transfer complex consisting of Europium labeled anti-GST monoclonal antibody, a GST-tagged PH domain, biotinylated PIP3 and Streptavidin-APC. Excitation of Europium in the complex results in an energy transfer to the APC and a fluorescence emission at 665 nm. The PIP3 product displaces biotin-PIP3 from the complex resulting in a loss of energy transfer and thus a decrease in signal.
(§5) To test for the ability of compounds to inhibit the activity of PI3Kα (wild-type), exemplary compounds of formula (I) were dissolved in DMSO and directly distributed into 384-well plates at a volume of 0.5 μL. 14.5 μL of P110/P85α/PIP2 mixture in buffer (obtained from the Millipore kit) containing MgCl2 (40 mM) and DTT (5 mM) was added to compound wells and incubated for 60 minutes at room temperature. P110/P85α was expressed in SF9 insect cells and purified nickel column extraction. Five ng of wild-type P110/P85α was used in the assay. The kinase reaction was started by the addition of ATP. The assay concentrations of both PIP2 and ATP were 10 μM. The reaction mixture was incubated for 30 minutes at room temperature and was terminated by the addition of stop mix and detection mix. Fluorescence was measured at 615 and 665 nm upon excitation at 340 nm in a Victor™ V5 fluorometer (Perkin Elmer, USA). The fluorescence emission ratio at 665 to 615 nm, proportional to the kinase activity, was plotted against the compound concentration to generate dose-response curves and IC50 values were determined using GraphPad Prism® 5 software.
(§6) The activity of PI3 kinase isoforms β, γ and δ were assayed in a similar manner to the assay protocol described above for PI3Kα, by substituting the appropriate p110/p85 isoform for the p110α/p85α. Compounds of formula (I) caused inhibition of PI3 kinase isoforms β, γ and δ as determined by these assays. For example, the compounds of Examples 3 and 21 each caused inhibition of PI3 kinase isoform β with IC50 values<500 nM. The compounds of Examples 3, 7, 21, 47, 48 and 49 each caused inhibition of PI3 kinase isoform γ with IC50 values<500 nM. The compounds of Example 3, 7, 47, 48, and 49 caused inhibition of PI3 kinase isoform δ with IC50 values<1 μM.

PI3 kinase isoform δ = PI3 kinase isoform δ (Homo sapiens, UniProt O00329); assay: PI3 Kinase TR-FRET assay, isoform δ; assay type: biochemical; conditions: read-out: inhibition of PI3 kinase isoform δ, IC50
Experimental: as §4, §5, §6

pS6RP = assay: In vivo PK/PD study, U87MG tumor xenograft, pS6RP; conditions: U87MG tumor-bearing xenograft mice, 50 mg/kg po
Experimental: as §1, §2, §3

Chain of PI3 kinase isoform γ (P48736 whole entry, the tested form may be a part, canonical isoform): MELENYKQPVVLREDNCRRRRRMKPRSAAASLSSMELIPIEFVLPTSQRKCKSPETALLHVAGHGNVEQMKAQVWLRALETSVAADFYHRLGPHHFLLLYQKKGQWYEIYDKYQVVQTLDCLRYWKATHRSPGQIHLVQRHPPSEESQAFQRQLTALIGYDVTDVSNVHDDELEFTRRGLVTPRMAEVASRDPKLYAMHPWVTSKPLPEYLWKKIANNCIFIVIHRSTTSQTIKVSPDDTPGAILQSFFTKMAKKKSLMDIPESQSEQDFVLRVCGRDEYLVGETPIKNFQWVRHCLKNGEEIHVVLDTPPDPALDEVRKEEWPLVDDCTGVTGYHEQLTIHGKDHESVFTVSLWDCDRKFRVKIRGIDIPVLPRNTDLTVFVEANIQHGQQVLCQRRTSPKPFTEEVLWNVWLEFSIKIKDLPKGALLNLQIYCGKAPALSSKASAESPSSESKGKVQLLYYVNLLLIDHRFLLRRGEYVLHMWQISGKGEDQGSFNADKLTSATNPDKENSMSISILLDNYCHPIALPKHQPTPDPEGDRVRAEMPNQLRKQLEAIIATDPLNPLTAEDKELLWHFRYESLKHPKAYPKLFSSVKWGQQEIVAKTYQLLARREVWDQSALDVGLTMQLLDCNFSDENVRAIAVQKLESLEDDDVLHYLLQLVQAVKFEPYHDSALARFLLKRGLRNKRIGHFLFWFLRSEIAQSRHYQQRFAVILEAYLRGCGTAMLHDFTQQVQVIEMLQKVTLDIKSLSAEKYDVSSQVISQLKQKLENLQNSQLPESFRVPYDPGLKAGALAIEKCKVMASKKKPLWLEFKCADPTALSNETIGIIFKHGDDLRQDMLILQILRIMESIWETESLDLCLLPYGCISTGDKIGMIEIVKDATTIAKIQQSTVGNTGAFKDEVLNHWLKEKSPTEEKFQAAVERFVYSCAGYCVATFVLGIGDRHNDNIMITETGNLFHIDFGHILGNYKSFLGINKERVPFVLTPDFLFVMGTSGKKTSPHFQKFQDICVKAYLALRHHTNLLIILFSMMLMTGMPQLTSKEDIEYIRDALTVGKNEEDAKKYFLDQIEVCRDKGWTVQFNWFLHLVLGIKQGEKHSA
Chain of PI3 kinase isoform δ (O00329 whole entry, canonical isoform): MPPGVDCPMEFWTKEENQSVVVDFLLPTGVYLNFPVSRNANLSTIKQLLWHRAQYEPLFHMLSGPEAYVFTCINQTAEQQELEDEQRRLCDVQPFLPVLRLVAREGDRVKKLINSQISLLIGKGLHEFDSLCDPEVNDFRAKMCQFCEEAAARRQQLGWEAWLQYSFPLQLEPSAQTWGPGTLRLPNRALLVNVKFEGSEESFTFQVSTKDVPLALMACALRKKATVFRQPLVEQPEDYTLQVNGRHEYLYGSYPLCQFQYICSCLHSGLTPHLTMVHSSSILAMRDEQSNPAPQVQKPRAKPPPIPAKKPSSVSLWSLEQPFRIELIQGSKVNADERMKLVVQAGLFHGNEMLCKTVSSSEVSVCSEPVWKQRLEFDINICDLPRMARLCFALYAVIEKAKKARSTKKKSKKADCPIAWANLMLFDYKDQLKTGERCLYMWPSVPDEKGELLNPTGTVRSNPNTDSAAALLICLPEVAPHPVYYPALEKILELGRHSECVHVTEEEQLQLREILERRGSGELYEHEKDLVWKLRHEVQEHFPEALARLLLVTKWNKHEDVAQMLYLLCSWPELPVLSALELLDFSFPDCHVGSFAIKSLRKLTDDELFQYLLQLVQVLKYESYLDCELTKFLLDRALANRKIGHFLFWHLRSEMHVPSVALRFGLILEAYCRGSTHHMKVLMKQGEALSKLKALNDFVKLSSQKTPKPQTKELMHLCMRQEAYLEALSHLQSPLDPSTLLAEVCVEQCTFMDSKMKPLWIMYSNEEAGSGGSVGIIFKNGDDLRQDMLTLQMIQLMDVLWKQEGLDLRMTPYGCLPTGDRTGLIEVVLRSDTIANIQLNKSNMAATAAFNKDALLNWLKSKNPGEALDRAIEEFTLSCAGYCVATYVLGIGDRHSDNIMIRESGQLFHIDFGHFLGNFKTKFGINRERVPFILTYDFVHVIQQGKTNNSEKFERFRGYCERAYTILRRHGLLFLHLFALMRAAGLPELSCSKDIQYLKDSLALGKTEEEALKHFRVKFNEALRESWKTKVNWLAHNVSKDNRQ
Chain of PI3 kinase isoform δ (P27986 whole entry partner, canonical isoform): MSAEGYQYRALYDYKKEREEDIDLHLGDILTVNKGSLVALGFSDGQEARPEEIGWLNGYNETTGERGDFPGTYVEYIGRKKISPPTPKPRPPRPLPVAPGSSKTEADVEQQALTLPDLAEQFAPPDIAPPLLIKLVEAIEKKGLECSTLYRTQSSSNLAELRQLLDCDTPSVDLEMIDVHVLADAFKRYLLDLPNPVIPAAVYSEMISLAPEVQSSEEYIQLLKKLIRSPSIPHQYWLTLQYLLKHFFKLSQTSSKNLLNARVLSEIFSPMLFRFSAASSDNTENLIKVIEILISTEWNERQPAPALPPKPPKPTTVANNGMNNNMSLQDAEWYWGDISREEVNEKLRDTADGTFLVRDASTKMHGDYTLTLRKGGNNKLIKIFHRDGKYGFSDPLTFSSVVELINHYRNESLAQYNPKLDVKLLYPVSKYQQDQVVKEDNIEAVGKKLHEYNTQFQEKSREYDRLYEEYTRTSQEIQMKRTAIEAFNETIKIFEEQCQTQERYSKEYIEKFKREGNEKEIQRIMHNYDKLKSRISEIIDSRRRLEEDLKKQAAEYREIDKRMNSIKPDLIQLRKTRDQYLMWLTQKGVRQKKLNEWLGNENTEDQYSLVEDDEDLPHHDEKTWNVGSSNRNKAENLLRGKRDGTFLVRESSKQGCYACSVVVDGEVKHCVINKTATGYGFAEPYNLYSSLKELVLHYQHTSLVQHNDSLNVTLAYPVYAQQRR

pIC50 (PI3 kinase isoform γ)	pIC50 (PI3 kinase isoform δ)	SMILES	suppression of pAKT (S473) (pAKT (S473))	suppression of pS6RP (pS6RP)
> 6.30	> 6.00	CC(=O)Nc1cccc(-c2cnc3c(N4CCOCC4)nc(-c4cnc(N)nc4)nc3c2)c1 [Example 3, N-(3-(2-(2-Aminopyrimidin-5-yl)-4-morpholinopyrido[3,2-d]pyrimidin-7-yl)-phenyl)acetamide]	suppression	suppression
> 6.30	> 6.00	Nc1ncc(-c2nc(N3CCOCC3)c3ncc(-c4cccc(NC(=O)C5CC5)c4)cc3n2)cn1 [Example 7, N-(3-(2-(2-Aminopyrimidin-5-yl)-4-morpholinopyrido[3,2-d]pyrimidin-7-yl)-phenyl)cyclopropanecarboxamide]		
		N#CC1(C(=O)Nc2cccc(-c3cnc4c(N5CCOCC5)nc(-c5cnc(N)nc5)nc4c3)c2)CC1 [Example 61, N-(3-(2-(2-amino-pyrimidin-5-yl)-4-morpholinopyrido[3,2-d]pyrimidin-7-yl)phenyl)-1-cyanocyclopropane-carboxamide]	suppression	suppression
